Measured values reported in ChEMBL document CHEMBL2202954, “The effect of PLC-γ2 inhibitors on the growth of human tumour cells” (2012).

How the values were obtained:
Format in all cases: functional
EKVX = test: Cytotoxicity against human EKVX cells assessed as cellular growth at 10 uM by SRB assay
SK-OV-3 = test: Cytotoxicity against human SKOV3 cells assessed as cellular growth at 10 uM by SRB assay
TK-10 = test: Cytotoxicity against human TK10 cells assessed as cellular growth at 10 uM by SRB assay
RPMI-8226 = test: Cytotoxicity against human RPMI8226 cells assessed as cellular growth at 10 uM by SRB assay
HCC 2998 = test: Cytotoxicity against human HCC2998 cells assessed as cellular growth at 10 uM by SRB assay
786-0 = test: Cytotoxicity against human 786-0 cells assessed as cellular growth at 10 uM by SRB assay
SK-MEL-5 = test: Cytotoxicity against human SK-MEL-5 cells assessed as cellular growth at 10 uM by SRB assay
NCI-H226 = test: Cytotoxicity against human NCI-H226 cells assessed as cellular growth at 10 uM by SRB assay
MDA-MB-435 = test: Cytotoxicity against human MDA-MB-435 cells assessed as cellular growth at 10 uM by SRB assay
OVCAR-4 = test: Cytotoxicity against human OVCAR4 cells assessed as cellular growth at 10 uM by SRB assay
UACC-257 = test: Cytotoxicity against human UACC257 cells assessed as cellular growth at 10 uM by SRB assay
CAKI-1 = test: Cytotoxicity against human Caki1 cells assessed as cellular growth at 10 uM by SRB assay
KM12 = test: Cytotoxicity against human KM12 cells assessed as cellular growth at 10 uM by SRB assay
NCI-H322M = test: Cytotoxicity against human NCI-H322M cells assessed as cellular growth at 10 uM by SRB assay
DU-145 = test: Cytotoxicity against human DU145 cells assessed as cellular growth at 10 uM by SRB assay
SNB-19 = test: Cytotoxicity against human SNB19 cells assessed as cellular growth at 10 uM by SRB assay
NCI-H23 = test: Cytotoxicity against human NCI-H23 cells assessed as cellular growth at 10 uM by SRB assay
SF-295 = test: Cytotoxicity against human SF295 cells assessed as cellular growth at 10 uM by SRB assay
SK-MEL-28 = test: Cytotoxicity against human SK-MEL-28 cells assessed as cellular growth at 10 uM by SRB assay
SF-268 = test: Cytotoxicity against human SF268 cells assessed as cellular growth at 10 uM by SRB assay
MCF7 = test: Cytotoxicity against human MCF7 cells assessed as cellular growth at 10 uM by SRB assay
SF-539 = test: Cytotoxicity against human SF539 cells assessed as cellular growth at 10 uM by SRB assay
NCI-H460 = test: Cytotoxicity against human NCI-H460 cells assessed as cellular growth at 10 uM by SRB assay
HOP-62 = test: Cytotoxicity against human HOP62 cells assessed as cellular growth at 10 uM by SRB assay
SW-620 = test: Cytotoxicity against human SW620 cells assessed as cellular growth at 10 uM by SRB assay
ACHN = test: Cytotoxicity against human ACHN cells assessed as cellular growth at 10 uM by SRB assay
T47D = test: Cytotoxicity against human T47D cells assessed as cellular growth at 10 uM by SRB assay
CCRF-CEM = test: Cytotoxicity against human CCRF-CEM cells assessed as cellular growth at 10 uM by SRB assay
SN12C = test: Cytotoxicity against human SN12C cells assessed as cellular growth at 10 uM by SRB assay
BT-549 = test: Cytotoxicity against human BT549 cells assessed as cellular growth at 10 uM by SRB assay
SNB-75 = test: Cytotoxicity against human SNB75 cells assessed as cellular growth at 10 uM by SRB assay
HOP-92 = test: Cytotoxicity against human HOP92 cells assessed as cellular growth at 10 uM by SRB assay
PC-3 = test: Cytotoxicity against human PC3 cells assessed as cellular growth at 10 uM by SRB assay
M14 = test: Cytotoxicity against human M14 cells assessed as cellular growth at 10 uM by SRB assay
NCI-H522 = test: Cytotoxicity against human NCI-H522 cells assessed as cellular growth at 10 uM by SRB assay
A549 = test: Cytotoxicity against human A549 cells assessed as cellular growth at 10 uM by SRB assay
[1] = Cytotoxicity against human NCI-ADR-RES cells assessed as cellular growth at 10 uM by SRB assay
MDA-MB-231 = test: Cytotoxicity against human MDA-MB-231 cells assessed as cellular growth at 10 uM by SRB assay
HCT-15 = test: Cytotoxicity against human HCT15 cells assessed as cellular growth at 10 uM by SRB assay
UO-31 = test: Cytotoxicity against human UO31 cells assessed as cellular growth at 10 uM by SRB assay
HT-29 = test: Cytotoxicity against human HT-29 cells assessed as cellular growth at 10 uM by SRB assay
Hs-578T = test: Cytotoxicity against human Hs578T cells assessed as cellular growth at 10 uM by SRB assay
A498 = test: Cytotoxicity against human A498 cells assessed as cellular growth at 10 uM by SRB assay
SK-MEL-2 = test: Cytotoxicity against human SK-MEL-2 cells assessed as cellular growth at 10 uM by SRB assay
K562 = test: Cytotoxicity against human K562 cells assessed as cellular growth at 10 uM by SRB assay
Malme-3M = test: Cytotoxicity against human MALME-3M cells assessed as cellular growth at 10 uM by SRB assay
IGROV-1 = test: Cytotoxicity against human IGROV1 cells assessed as cellular growth at 10 uM by SRB assay
UACC-62 = test: Cytotoxicity against human UACC62 cells assessed as cellular growth at 10 uM by SRB assay
MDA-MB-468 = test: Cytotoxicity against human MDA-MB-468 cells assessed as cellular growth at 10 uM by SRB assay
OVCAR-5 = test: Cytotoxicity against human OVCAR5 cells assessed as cellular growth at 10 uM by SRB assay
HL-60(TB) = test: Cytotoxicity against human HL-60(TB) cells assessed as cellular growth at 10 uM by SRB assay
MOLT-4 = test: Cytotoxicity against human MOLT4 cells assessed as cellular growth at 10 uM by SRB assay
U-251 = test: Cytotoxicity against human U251 cells assessed as cellular growth at 10 uM by SRB assay
OVCAR-3 = test: Cytotoxicity against human OVCAR3 cells assessed as cellular growth at 10 uM by SRB assay
COLO 205 = test: Cytotoxicity against human COLO205 cells assessed as cellular growth at 10 uM by SRB assay
LOX IMVI = test: Cytotoxicity against human LOXIMVI cells assessed as cellular growth at 10 uM by SRB assay
HCT-116 = test: Cytotoxicity against human HCT116 cells assessed as cellular growth at 10 uM by SRB assay
RXF 393 = test: Cytotoxicity against human RXF393 cells assessed as cellular growth at 10 uM by SRB assay
OVCAR-8 = test: Cytotoxicity against human OVCAR8 cells assessed as cellular growth at 10 uM by SRB assay
SR = test: Cytotoxicity against human SR cells assessed as cellular growth at 10 uM by SRB assay

Cc1c(OCC(=O)c2ccccc2)ccc2c1oc(=O)c1ccccc12
Activity (EKVX): 99.55%
Activity (SK-OV-3): 101.55%
Activity (TK-10): 110%
Activity (RPMI-8226): 107.85%
Activity (HCC 2998): 117.13%
Activity (786-0): 104.87%
Activity (SK-MEL-5): 97.8%
Activity (NCI-H226): 99.25%
Activity (MDA-MB-435): 98.4%
Activity (OVCAR-4): 106.31%
Activity (UACC-257): 111.79%
Activity (CAKI-1): 99.74%
Activity (KM12): 97.66%
Activity (NCI-H322M): 115.03%
Activity (DU-145): 106.9%
Activity (SNB-19): 101.61%
Activity (NCI-H23): 109.71%
Activity (SF-295): 99.54%
Activity (SK-MEL-28): 113.56%
Activity (SF-268): 100.71%
Activity (MCF7): 102.82%
Activity (SF-539): 104.56%
Activity (NCI-H460): 100.87%
Activity (HOP-62): 105.3%
Activity (SW-620): 95.18%
Activity (ACHN): 114.47%
Activity (T47D): 94.27%
Activity (CCRF-CEM): 95.27%
Activity (SN12C): 101.41%
Activity (BT-549): 120.42%
Activity (SNB-75): 122.93%
Activity (HOP-92): 103.71%
Activity (PC-3): 90%
Activity (M14): 118.87%
Activity (NCI-H522): 110.46%
Activity (A549): 93.47%
Activity [1]: 100.54%
Activity (MDA-MB-231): 104.28%
Activity (HCT-15): 107.13%
Activity (UO-31): 107.51%
Activity (HT-29): 100.17%
Activity (Hs-578T): 103.5%
Activity (A498): 91.47%
Activity (SK-MEL-2): 125.14%
Activity (K562): 100.66%
Activity (Malme-3M): 120.27%
Activity (IGROV-1): 115.73%
Activity (UACC-62): 98.05%
Activity (MDA-MB-468): 62.01%
Activity (OVCAR-5): 108.12%
Activity (HL-60(TB)): 111.36%
Activity (MOLT-4): 90.5%
Activity (U-251): 98.92%
Activity (OVCAR-3): 102.65%
Activity (COLO 205): 117.2%
Activity (LOX IMVI): 98.34%
Activity (HCT-116): 107.52%
Activity (RXF 393): 116.6%
Activity (OVCAR-8): 99.11%

O=S(=O)(Oc1ccc(-c2cnc3ccccc3n2)cc1)c1ccc2ccccc2c1
Activity (EKVX): 94.26%
Activity (SK-OV-3): 102.69%
Activity (TK-10): 94.33%
Activity (RPMI-8226): 89.09%
Activity (HCC 2998): 107.48%
Activity (786-0): 96.4%
Activity (SK-MEL-5): 84.35%
Activity (NCI-H226): 98.79%
Activity (MDA-MB-435): 95.36%
Activity (UACC-257): 114.11%
Activity (CAKI-1): 105.66%
Activity (KM12): 101.08%
Activity (NCI-H322M): 137.19%
Activity (DU-145): 104.01%
Activity (SNB-19): 99.88%
Activity (NCI-H23): 100.37%
Activity (SF-295): 102.68%
Activity (SK-MEL-28): 112.84%
Activity (SF-268): 104.06%
Activity (MCF7): 103.49%
Activity (SF-539): 119.65%
Activity (NCI-H460): 96.28%
Activity (HOP-62): 104.1%
Activity (SW-620): 100.52%
Activity (ACHN): 118.15%
Activity (T47D): 91.09%
Activity (CCRF-CEM): 90.35%
Activity (SN12C): 92.04%
Activity (BT-549): 122.04%
Activity (SNB-75): 119.77%
Activity (SR): 93.61%
Activity (HOP-92): 101.74%
Activity (PC-3): 87.31%
Activity (M14): 100.37%
Activity (NCI-H522): 86.38%
Activity (A549): 102.43%
Activity [1]: 104.07%
Activity (MDA-MB-231): 103.12%
Activity (HCT-15): 115.04%
Activity (UO-31): 118.94%
Activity (HT-29): 82.27%
Activity (Hs-578T): 105.04%
Activity (A498): 85.21%
Activity (SK-MEL-2): 107.17%
Activity (K562): 90.95%
Activity (UACC-62): 82.67%
Activity (MDA-MB-468): 85.1%
Activity (OVCAR-5): 109.35%
Activity (HL-60(TB)): 87.7%
Activity (MOLT-4): 89.91%
Activity (U-251): 104.05%
Activity (OVCAR-3): 107.67%
Activity (COLO 205): 121.42%
Activity (LOX IMVI): 115.1%
Activity (HCT-116): 94.69%
Activity (RXF 393): 110%
Activity (OVCAR-8): 110.71%
